Experimental data as given in US20250255857A1, “METHODS OF TREATING ANDROGEN RECEPTOR-INDEPENDENT PROSTATE CANCER” (FOGHORN THERAPEUTICS INC., priority 2022, published 2025).

What was measured:
[1] = tested on: LNCaP prostate xenograft tumors; assay: LNCaP prostate xenograft tumor model, tumor growth inhibition; format: in vivo, mice
Method: Procedure: The experimental details of the studies, including tumor model, mouse strain, cell number implanted, vehicle used, days of treatment, treatment details, and average tumor size at start of dosing are outlined in Table 1. All study mice were purchased from Beijing Anikeeper Biotech and Matrigel was utilized as a basement membrane for all xenograft models. All xenografts were engrafted subcutaneously in the right flank region. The vehicles and Compound 1 (3 mg/kg) were administered twice weekly (BIW) intraperitoneally and enzalutamide (30 mg/kg) was administered orally once daily (QD), when applicable. Tumor volumes and body weights were measured over the course of study, and doses were adjusted by body weight to achieve the proper dose in terms of mg/kg.

[2] = tested on: VCAP human prostate cancer tumor cells; assay: VCaP CRPC CDX model in castrated mice (Example 6), tumor growth inhibition and tolerability; format: in vivo
Method: Procedure: The experimental details of the studies, including tumor model, mouse strain, cell number implanted, vehicle used, days of treatment, treatment details, and average tumor size at start of dosing are outlined in Table 7. All study mice were obtained and the studies were conducted at Pharmaron. Each mouse was inoculated subcutaneously on the right flank with the single cell suspension of VCAP human prostate cancer tumor cells (1×10^7) in 0.1 mL with Matrigel (1:1) in DMEM medium with 10% FBS for tumor development. The mice were castrated by removing the testes via a scrotal approach when the tumor volume reached 270 mm^3. After castration, the tumor volume decreased. Treatment started when the mean tumor volume grew back 265 mm^3. Based on tumor volume, mice were randomly assigned to respective groups using a computer-generated randomization procedure and treated according to the study design in Table 8.

[3] = VCAP CRPC model, castrated mice, Compound 1 at 10 mg/kg IP BIW, 25 days
[4] = VCAP CRPC model, castrated mice, Compound 1 at 10 mg/kg IP BIW, 25 days, Day 57

## COc1cc(-c2cn(C)c(=O)c3cnc(N4CCC4)cc23)cc(OC)c1CN1CCC(CN2CCC3(CC2)CN(c2ccc4c(c2)C(=O)N(C2CCC(=O)NC2=O)C4)C3)CC1 (centres unmarked) [Compound 1, 3-(6-(7-((1-(4-(6-(azetidin-1-yl)-2-methyl-1-oxo-1,2-dihydro-2,7-naphthyridin-4-yl)-2,6-dimethoxybenzyl)piperidin-4-yl)methyl)-2,7-diazaspiro[3.5]nonan-2-yl)-1-oxoisoindolin-2-yl) piperidine-2,6-dione]
[1]; LNCaP CDX model, AR+, 3 mg/kg BIW IP
  TGI with Compound 1 3 mg/kg: 6.0%
[1]; LNCaP xenograft, Compound 1 3 mg/kg BIW IP, enzalutamide 30 mg/kg QD oral
  tumor growth inhibition (TGI), in words: did not result in tumor growth inhibition
[2]; Compound 1 10 mg/kg, enzalutamide 30 mg/kg, deaths suspected due to castration surgery
  animals found dead at the late stage of the treatment period: One
[2]; [3]
  Tumor Growth % on Day 57: 267 ± 20%
  Tumor Size on Day 57: 697 ± 44 mm3
[2]; [4]
  T/C: 86.2%
  TGI: 13.8%
[2]; VCaP CRPC model, castrated mice, Compound 1 10 mg/kg, enzalutamide 30 mg/kg, day 57 after tumor inoculation
  TGI: 13.8%
